# Source: patent publication US20260166021A1, “POLYMORPHIC FORMS OF A SOLUBLE EPOXIDE HYDROLASE INHIBITOR AND FORMULATIONS THEREOF” (EicOsis, LLC, priority 2022, published 2026)
# Columns and labels:
# [1] = Kinetic solubility in sodium lauryl sulfate (SLS) 60 mM, with XRD of remaining solid; assay type: physicochemical; details: room temperature
# Experimental: The mixture was stirred at room temperature with astir bar. The samples (n=3) were collected at each predetermined time points (5, 10, 15, 20, 30, 60, 90, 120, and 180 minutes) and centrifuged. The filtrate was analyzed by H PLC to determine solubility, and the remaining solid was analyzed by XRD as appropriate. Three replicates were performed for each condition.
# The advantages of achieving higher degree of supersaturation from milled material (by providing larger surface area) and amorphous material (by providing higher solubility) were offset by phase transformation from Form D to Pattern C (i.e. hydrate form).
# In each figure, the top spectrum corresponds to pure Form C, the second figure from the top of the figure corresponds to pure Form D, the third spectrum from the top of the figure corresponds to solid collected following 5 minutes of solubilization, the fourth spectrum from the top corresponds to solid collected following 60 minutes of solubilization, the fifth spectrum from the top corresponds to solid collected following 90 minutes of solubilization, and the bottom spectrum corresponds to solid collected following 180 minutes of solubilization. As indicated by these XRD data, the milled and amorphous materials were converted into Pattern C within 5 min after exposure to the dissolution medium. […]
# [2] = Bulk and tapped density (tap density tester); assay type: physicochemical
# Source text: Before milling, Form D was screened through a 30-micron mesh sieve. Then, Form D micronized using a 2-inch jet mill 70 psig feed pressure, 40 psig grinding pressure, and a 4.3 g/min powder feed rate. The micronization process provided a 69% yield and 95.6% crystallinity relative to the unmilled material.
smiles,measurement,setting,value
"CC[C@H](C)C(=O)N1CCC(NC(=O)Nc2ccc(OC(F)(F)F)c(F)c2)CC1 [unmilled Form D, (S)-1-(3-fluoro-4-(trifluoromethoxy)phenyl)-3-(1-(2-methylbutanoyl)piperidin-4-yl)urea]",time to full transition to the hydrate form (Form C),[1],60 min
same,bulk density,[2],0.54 g/mL
same,tapped density,[2],0.61 g/mL
